Where “and” joins values, the source holds several entries; their conditions need not be identical. Identical values can stand only once.
What was measured:
[1] = refractive index (Na D-line) (dimensionless); details: 101.33 kPa, Liquid, Standard Abbe refractometry
[2] = 101.33 kPa, Liquid; for electrical conductivity: Alternating current cell with electrodes; for viscosity: Falling or rolling sphere viscometry; for mass density: Vibrating tube method

CCCC[N+]1(C)CCCC1.N#CN=C=[N-] [1-butyl-1-methylpyrrolidinium dicyanamide]
Details	electrical conductivity, [2]	mass density, [2]	refractive index, [1]	viscosity, [2]
238.15 K	0.0337 S/m	–	–	–
248.15 K	0.081 S/m and 0.102 S/m	–	–	–
258.15 K	0.166 S/m and 0.2 S/m	–	–	–
268.15 K	0.299 S/m and 0.352 S/m	–	–	–
278.15 K	0.49 S/m and 0.566 S/m	1029 kg/m3 and 1024.78 kg/m3	–	95.5 mPa·s and 80.15 mPa·s
288.15 K	0.746 S/m and 0.844 S/m	1023.24 kg/m3 and 1019.06 kg/m3	1.4862	61.23 mPa·s and 51.72 mPa·s
293.15 K	–	–	1.4853	–
298.15 K	1.07 S/m and 1.19 S/m	1017.56 kg/m3 and 1013.4 kg/m3	1.4847	41.78 mPa·s and 35.85 mPa·s
303.15 K	–	–	1.4842	–
308.15 K	1.46 S/m and 1.61 S/m	1011.95 kg/m3 and 1007.81 kg/m3	1.4836	29.99 mPa·s and 25.93 mPa·s
313.15 K	–	–	1.4832	–
318.15 K	1.92 S/m and 2.08 S/m	1006.4 kg/m3 and 1002.27 kg/m3	1.4826	21.44 mPa·s and 19.43 mPa·s
323.15 K	–	–	1.4818	–
328.15 K	2.44 S/m and 2.63 S/m	1000.91 kg/m3 and 996.796 kg/m3	1.481	16.47 mPa·s and 15 mPa·s
333.15 K	–	–	1.48	–
338.15 K	3.02 S/m and 3.23 S/m	995.474 kg/m3 and 991.368 kg/m3	1.479	13.08 mPa·s and 11.84 mPa·s
343.15 K	–	–	1.4779	–
348.15 K	3.88 S/m	985.987 kg/m3	–	10.57 mPa·s and 9.634 mPa·s
358.15 K	4.58 S/m	980.656 kg/m3	–	8.801 mPa·s and 8.017 mPa·s
368.15 K	5.32 S/m	–	–	7.467 mPa·s and 6.774 mPa·s
378.15 K	6.11 S/m	–	–	6.444 mPa·s and 5.761 mPa·s
388.15 K	6.93 S/m	–	–	5.605 mPa·s and 5.001 mPa·s
398.15 K	7.78 S/m	–	–	4.956 mPa·s and 4.386 mPa·s
408.15 K	8.67 S/m	–	–	3.905 mPa·s
418.15 K	9.57 S/m	–	–	–
428.15 K	10.5 S/m	–	–	–
438.15 K	11.4 S/m	–	–	–
448.15 K	12.3 S/m	–	–	–

CCCCCCCC[N+](C)(CCCCCCCC)CCCCCCCC.O=C([O-])C(F)(F)F [methyltrioctylammonium trifluoroacetate]
[2]
Details	electrical conductivity [S/m]	mass density [kg/m3]	viscosity [mPa·s]
288.15 K	–	–	3629
298.15 K	0.00155	962.478	1551
303.15 K	–	959.262	–
308.15 K	0.00329	956.054	735.2
313.15 K	–	952.805	–
318.15 K	0.0063	949.626	380.8
323.15 K	–	946.478	–
328.15 K	0.0112	943.335	212.1
333.15 K	–	940.189	–
338.15 K	0.0185	937.046	126.7
343.15 K	–	933.904	–
348.15 K	0.0293	930.772	79.97
353.15 K	–	927.648	–
358.15 K	0.0444	924.529	53.33
363.15 K	–	921.418	–
368.15 K	0.0647	–	36.92
378.15 K	0.0924	–	26.69
388.15 K	0.125	–	19.8
398.15 K	–	–	15.03

CC[S+](C)CC.O=S(=O)([N-]S(=O)(=O)C(F)(F)F)C(F)(F)F [diethylmethylsulfonium bis[(trifluoromethyl)sulfonyl]imide]
Details	electrical conductivity, [2] [S/m]	mass density, [2] [kg/m3]	refractive index, [1]	viscosity, [2] [mPa·s]
258.15 K	0.0975	–	–	–
268.15 K	0.182	–	–	–
278.15 K	0.305	1520.53	–	98.6
283.15 K	–	–	1.4276	–
288.15 K	0.473	1510.56	1.4262	61.05
293.15 K	–	–	1.4247	–
298.15 K	0.688	1500.71	1.4233	40.71
303.15 K	–	–	1.4219	–
308.15 K	0.95	1490.96	1.4204	28.55
313.15 K	–	–	1.419	–
318.15 K	1.26	1481.3	1.4175	20.95
323.15 K	–	–	1.4161	–
328.15 K	1.61	1471.73	1.4146	15.73
333.15 K	–	–	1.4132	–
338.15 K	2	1462.25	1.4118	12.34
343.15 K	–	–	1.4103	–
348.15 K	2.43	–	–	9.945
358.15 K	2.88	–	–	8.183
368.15 K	3.37	–	–	6.826
378.15 K	3.89	–	–	5.793
388.15 K	4.43	–	–	4.981
398.15 K	4.99	–	–	4.331
418.15 K	6.16	–	–	–
438.15 K	7.38	–	–	–
458.15 K	8.63	–	–	–

CCCC[n+]1ccccc1.O=S(=O)([N-]S(=O)(=O)C(F)(F)F)C(F)(F)F [1-butylpyridinium bis[(trifluoromethyl)sulfonyl]imide]
Details	electrical conductivity, [2] [S/m]	mass density, [2] [kg/m3]	refractive index, [1]	viscosity, [2] [mPa·s]
278.15 K	0.119	1467.88	–	182.1
283.15 K	–	–	1.4474	–
288.15 K	0.206	1458.26	1.4459	100.9
293.15 K	–	–	1.4444	–
298.15 K	0.326	1448.74	1.4429	61.39
303.15 K	–	–	1.4414	–
308.15 K	0.483	1439.32	1.4399	40.14
313.15 K	–	–	1.4384	–
318.15 K	0.677	1430.02	1.4369	27.9
323.15 K	–	–	1.4354	–
328.15 K	0.909	1420.8	1.4339	20.36
333.15 K	–	–	1.4324	–
338.15 K	1.17	1411.66	1.4309	15.42
343.15 K	–	–	1.4294	–
348.15 K	1.47	1402.6	–	12.04
358.15 K	1.8	1393.63	–	9.663
368.15 K	2.16	–	–	7.904
378.15 K	2.54	–	–	–
388.15 K	2.94	–	–	–
398.15 K	3.37	–	–	–
418.15 K	4.27	–	–	–
438.15 K	5.24	–	–	–

CC[S+](CC)CC.O=S(=O)([N-]S(=O)(=O)C(F)(F)F)C(F)(F)F [triethylsulfonium bis((trifluoromethyl)sulfonyl)imide]
Details	electrical conductivity [S/m]	mass density [kg/m3]	refractive index	viscosity [mPa·s]
[1], 283.15 K	–	–	1.4308	–
[1], 288.15 K	–	–	1.4293	–
[1], 293.15 K	–	–	1.4279	–
[1], 298.15 K	–	–	1.4264	–
[1], 303.15 K	–	–	1.4249	–
[1], 308.15 K	–	–	1.4234	–
[1], 313.15 K	–	–	1.4219	–
[1], 318.15 K	–	–	1.4204	–
[1], 323.15 K	–	–	1.419	–
[1], 328.15 K	–	–	1.4175	–
[1], 333.15 K	–	–	1.4161	–
[1], 338.15 K	–	–	1.4148	–
[1], 343.15 K	–	–	1.4134	–
[2], 258.15 K	0.0992	–	–	–
[2], 268.15 K	0.186	–	–	–
[2], 278.15 K	0.314	1479.69	–	80.5
[2], 288.15 K	0.487	1469.86	–	49.88
[2], 298.15 K	0.708	1460.14	–	33.36
[2], 308.15 K	0.975	1450.51	–	23.5
[2], 318.15 K	1.29	1440.97	–	17.34
[2], 328.15 K	1.64	1431.52	–	13.26
[2], 338.15 K	2.03	1422.15	–	10.44
[2], 348.15 K	2.46	–	–	8.445
[2], 358.15 K	2.91	–	–	6.963
[2], 368.15 K	3.4	–	–	5.849
[2], 378.15 K	3.92	–	–	4.99
[2], 388.15 K	4.43	–	–	4.312
[2], 398.15 K	5	–	–	3.768
[2], 408.15 K	5.58	–	–	–
[2], 418.15 K	6.16	–	–	–
[2], 428.15 K	6.76	–	–	–
[2], 438.15 K	7.37	–	–	–
[2], 448.15 K	7.98	–	–	–
[2], 458.15 K	8.59	–	–	–
[2], 468.15 K	9.17	–	–	–

From the NIST ThermoML archive (doi:10.1021/acs.jced.7b00060)
